Experimental data taken from the NIST ThermoML archive (doi:10.1021/je050484k).
“And” between values parts separate entries of the source, which are not always exact repeats. Equal values may be shown once.

Key:
[1] = for surface tension liquid-gas: Pendant drop shape; for mass density: 101 kPa, Liquid
[2] = xn = mol fraction of the nth substance listed; conditions: for surface tension liquid-gas: Pendant drop shape; for mass density: 101 kPa, Liquid

Cc1ccc(C)c(C)c1 [1,2,4-trimethylbenzene]
[1]
Conditions	mass density [kg/m3]	surface tension liquid-gas [mN/m]
298.15 K	871.65	29.29
313.15 K	859.54	27.67

Cc1ccc(C)c(C)c1 [1,2,4-trimethylbenzene] + COCCO
[2]
Conditions	mass density [kg/m3]	surface tension liquid-gas [mN/m]
298.15 K, x2 = 0	871.65	29.29
298.15 K, x2 = 0.0507	873.14	–
298.15 K, x2 = 0.0976	875.08	29.36
298.15 K, x2 = 0.154	877.75	–
298.15 K, x2 = 0.2031	880.31	29.36
298.15 K, x2 = 0.2556	883.31	–
298.15 K, x2 = 0.3021	886.13	29.35
298.15 K, x2 = 0.3482	889.1	–
298.15 K, x2 = 0.3999	892.67	29.44
298.15 K, x2 = 0.453	896.6	–
298.15 K, x2 = 0.5015	900.39	29.57
298.15 K, x2 = 0.5513	904.61	–
298.15 K, x2 = 0.6035	909.35	29.78
298.15 K, x2 = 0.6526	914.1	–
298.15 K, x2 = 0.7033	919.38	30.03
298.15 K, x2 = 0.7534	924.98	–
298.15 K, x2 = 0.7974	930.26	30.34
298.15 K, x2 = 0.8455	936.54	–
298.15 K, x2 = 0.9014	944.31	30.61
298.15 K, x2 = 0.9507	951.9	–
313.15 K, x2 = 0	859.54	27.67
313.15 K, x2 = 0.0494	860.68	–
313.15 K, x2 = 0.1019	862.75	27.78
313.15 K, x2 = 0.15	864.92	–
313.15 K, x2 = 0.2002	867.4	27.72
313.15 K, x2 = 0.2486	869.95	–
313.15 K, x2 = 0.3004	873	27.72
313.15 K, x2 = 0.3507	876.1	–
313.15 K, x2 = 0.4007	879.45	27.79
313.15 K, x2 = 0.4502	883.02	–
313.15 K, x2 = 0.4991	886.8	27.84
313.15 K, x2 = 0.5513	891.2	–
313.15 K, x2 = 0.6006	895.56	28.03
313.15 K, x2 = 0.653	900.55	–
313.15 K, x2 = 0.7002	905.44	28.29
313.15 K, x2 = 0.7504	910.91	–
313.15 K, x2 = 0.7999	916.79	28.59
313.15 K, x2 = 0.8496	923.25	–
313.15 K, x2 = 0.9007	930.3	28.96
313.15 K, x2 = 0.9504	937.74	–

Cc1ccc(C)c(C)c1 [1,2,4-trimethylbenzene] + COCCOC
[2]
Conditions	mass density [kg/m3]	surface tension liquid-gas [mN/m]
298.15 K, x2 = 0	871.65	29.29
298.15 K, x2 = 0.0488	871.13	–
298.15 K, x2 = 0.103	870.57	28.71
298.15 K, x2 = 0.1497	870.09	–
298.15 K, x2 = 0.205	869.53	28.11
298.15 K, x2 = 0.2496	869.07	–
298.15 K, x2 = 0.3006	868.54	27.54
298.15 K, x2 = 0.3515	868.02	–
298.15 K, x2 = 0.398	867.54	26.97
298.15 K, x2 = 0.4492	867.02	–
298.15 K, x2 = 0.5005	866.49	26.43
298.15 K, x2 = 0.5491	865.99	–
298.15 K, x2 = 0.601	865.46	25.9
298.15 K, x2 = 0.649	864.97	–
298.15 K, x2 = 0.6979	864.48	25.42
298.15 K, x2 = 0.7506	863.94	–
298.15 K, x2 = 0.7977	863.46	24.92
298.15 K, x2 = 0.8501	862.93	–
298.15 K, x2 = 0.9018	862.41	24.41
298.15 K, x2 = 0.9463	861.95	–
313.15 K, x2 = 0	859.54	27.67
313.15 K, x2 = 0.0482	858.88	–
313.15 K, x2 = 0.1004	858.17	–
313.15 K, x2 = 0.1019	–	27.02
313.15 K, x2 = 0.1494	857.51	–
313.15 K, x2 = 0.1999	856.82	–
313.15 K, x2 = 0.2002	–	26.43
313.15 K, x2 = 0.2495	856.16	–
313.15 K, x2 = 0.2999	855.48	–
313.15 K, x2 = 0.3004	–	25.85
313.15 K, x2 = 0.353	854.74	–
313.15 K, x2 = 0.4007	–	25.26
313.15 K, x2 = 0.4015	854.06	–
313.15 K, x2 = 0.4557	853.31	–
313.15 K, x2 = 0.4991	–	24.73
313.15 K, x2 = 0.4996	852.68	–
313.15 K, x2 = 0.5499	851.99	–
313.15 K, x2 = 0.5989	851.29	–
313.15 K, x2 = 0.6006	–	24.23
313.15 K, x2 = 0.6513	850.53	–
313.15 K, x2 = 0.7002	–	23.77
313.15 K, x2 = 0.7005	849.81	–
313.15 K, x2 = 0.7508	849.12	–
313.15 K, x2 = 0.7999	–	23.32
313.15 K, x2 = 0.8	848.38	–
313.15 K, x2 = 0.8503	847.65	–
313.15 K, x2 = 0.9007	–	22.94
313.15 K, x2 = 0.9008	846.87	–
313.15 K, x2 = 0.9493	846.16	–

COCCOC [1,2-dimethoxyethane]
[1]
Conditions	mass density	surface tension liquid-gas [mN/m]
298.15 K	861.38 kg/m3	23.93
313.15 K	845.31 kg/m3 and 845.28 kg/m3	22.51
